Each structure is given as a SMILES string.

One test deals with T1, recombinant human mPGES-1 (Homo sapiens, UniProt O14684).
T1 construct: made in house; host or cells: Rosetta E. coli (microsomal/membrane fraction)
T1 sequence (O14684 1-152): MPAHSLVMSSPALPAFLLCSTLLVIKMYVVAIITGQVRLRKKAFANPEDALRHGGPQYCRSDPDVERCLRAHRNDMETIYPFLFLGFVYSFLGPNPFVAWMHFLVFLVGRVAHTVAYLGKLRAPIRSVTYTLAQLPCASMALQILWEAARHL
The test can be described thus: mPGES-1 inhibition test (microsomes, PGH2 substrate, HTRF detection of PGE2). It is filed as biochemical. The following applies: inhibition of mPGES-1 at 1 μM (marked in cell). Put shortly: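 First, inhibitor is incubated with microsomal enzyme from Rosetta E. coli in KPi pH 7.4 containing 2.5 mM GSH for 25 minutes at room temperature. Next, PGH2 is added and stopped after one minute with FeCl2 stop solution. Finally, diluted samples undergo HTRF PGE2 quantification.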
In general, inhibition refers to the relative decrease from the control value, in per cent. On to `CCOc1cc2[nH]c(Nc3c(Cl)ccc(Cl)c3F)nc2cc1C(=O)NC1CCC2(CC1)CC2` [Example 646, 2-(3,6-Dichloro-2-fluoro-phenylamino)-6-ethoxy-N-(spiro[2.5]oct-6-yl)-1H-benzimidazole-5-carboxamide], for which the inhibition at 1 µM was 99%.

Take `Cc1ccc(Cl)c(Nc2nc3cc(C(=O)NC4CCCCC4)c(F)cc3n2C)c1F` [Example 623, 2-(6-Chloro-2-fluoro-3-methyl-phenylamino)-6-fluoro-N-cyclohexyl-1-methyl-1H-benzimidazole-5-carboxamide]: the inhibition at 1 µM stood at 93%.

Still in this test, the particulars now being: inhibition of mPGES-1 at 10 μM.
For `Cn1c(Nc2c(Cl)cccc2Cl)nc2cc(C(=O)NCCC3CC3)c(F)cc21` [Example 484, N-(2-Cyclopropylethyl)-2-(2,6-dichlorophenylamino)-6-fluoro-1-methyl-1H-benzimidazole-5-carboxamide], the inhibition at 10 µM is 95%.

Turning to `O=C(Nc1cccc(Cl)c1)c1cc2nc(Nc3c(Cl)cccc3Cl)[nH]c2cc1Cl` [Example 56, 2-(2,6-Dichloro-phenylamino)-6-chloro-1H-benzimidazol-5-carboxylic acid (3-chloro-phenyl)-amide], the inhibition at 10 µM was 100%.

On to `COc1cc2[nH]c(Nc3c(Cl)cc(F)cc3Cl)nc2cc1C(=O)NCc1ncccc1C(F)(F)F` [Example 580, 2-(2,6-Dichloro-4-fluoro-phenylamino)-6-methoxy-N-((3-trifluoromethyl-pyridin-2-yl)-methyl)-1H-benzimidazole-5-carboxamide], for which the inhibition at 10 µM was determined as 100%.

For the molecule `Cn1c(Nc2c(Cl)cccc2Cl)nc2cc(C(=O)NCC3CCC3)c(F)cc21` [Example 516, N-(Cyclobutylmethyl)-2-(2,6-dichlorophenylamino)-6-fluoro-1-methyl-1H-benzimidazole-5-carboxamide], the inhibition at 10 µM was found to be 97%.

As to `Cc1cc(C(=O)Nc2ccc(Br)cc2)cc2nc(Nc3c(Cl)cccc3Cl)[nH]c12` [Example 51, 2-(2,6-Dichloro-phenylamino)-7-methyl-1H-benzimidazole-5-carboxylic acid (4-bromo-phenyl)-amide], the inhibition at 10 µM was 89%.

For the molecule `N[C@H]1C[C@H](n2c(Nc3c(Cl)cccc3Cl)nc3cc(C(=O)Nc4cc(Cl)ccn4)ccc32)C1` [Example 270, 2-(2,6-Dichloro-phenylamino)-1-(trans-3-amino-cyclobutyl)-1H-benzimidazole-5-carboxylic acid (4-chloro-pyridin-2-yl)-amide], the inhibition at 10 µM turned out to be 96%.

With `O=C(Nc1cc(Cl)ccn1)c1ccc2c(c1)nc(Nc1c(Cl)cccc1Cl)n2C1CNC1` [Example 207, 2-(2,6-Dichloro-phenylamino)-1-azetidin-3-yl-1H-benzimidazole-5-carboxylic acid (4-chloro-pyridin-2-yl)-amide(trifluoro-acetate)], the inhibition at 10 µM came out at 97%.

For `Cn1c(Nc2c(Cl)cccc2Cl)nc2cc(C(=O)NC3CCC4(CC4)C3)ccc21` (stereo not drawn) [Example 436, 2-(2,6-Dichlorophenylamino)-1-methyl-N-(spiro[2.4]heptan-5-yl)-1H-benzimidazole-5-carboxamide], the inhibition at 10 µM worked out at 99%.

Turning to `Cc1ccc(NC(=O)c2ccc3[nH]c(Nc4c(Cl)cccc4Cl)nc3c2)cc1Cl` [Example 286, 2-(2,6-Dichloro-phenylamino)-1H-benzimidazole-5-carboxylic acid (3-chloro-4-methyl-phenyl)-amide], the inhibition at 10 µM stood at 100%.

As for `O=C(Nc1ccc(Br)cc1)c1cc2nc(Nc3c(F)ccc(Cl)c3Cl)[nH]c2cc1OCC(F)(F)F` [Example 588, N-(4-Bromo-phenyl)-2-(2,3-dichloro-6-fluoro-phenylamino)-6-(2,2,2-trifluoroethoxy)-1H-benzimidazole-5-carboxamide], the inhibition at 10 µM was determined as 100%.

Turning to `CS(=O)(=O)NCCn1c(Nc2c(Cl)cccc2Cl)nc2cc(C(=O)Nc3cc(Cl)ccn3)ccc21` [Example 205, 2-(2,6-Dichloro-phenylamino)-1-(2-methanesulfonylamino-ethyl)-1H-benzimidazole-5-carboxylic acid (4-chloro-pyridin-2-yl)-amide], the inhibition at 10 µM was determined as 97%.

Regarding `Cc1cc(Br)cnc1NC(=O)c1ccc2[nH]c(Nc3c(Cl)cccc3Cl)nc2c1` [Example 183, 2-(2,6-Dichloro-phenylamino)-1H-benzimidazole-5-carboxylic acid (5-bromo-3-methyl-pyridin-2-yl)-amide], the inhibition at 10 µM is 100%.

As for `Cn1c(Nc2c(Cl)cccc2Cl)nc2cc(C(=O)NC3CCC4(CC3)CC4)ccc21` [Example 483, 2-(2,6-Dichlorophenylamino)-1-methyl-N-(spiro[2.5]octan-6-yl)-1H-benzimidazole-5-carboxamide], the inhibition at 10 µM is 95%.

Turning to `O=C(Nc1cc(Cl)nc(Cl)c1)c1ccc2[nH]c(Nc3c(Cl)cccc3Cl)nc2c1` [Example 187, 2-(2,6-Dichloro-phenylamino)-1H-benzimidazole-5-carboxylic acid (2,6-dichloro-pyridin-4-yl)-amide], the inhibition at 10 µM is 98%.

With `O=C(N[C@H]1CC[C@@H](C(F)(F)F)CC1)c1ccc2[nH]c(Nc3c(Cl)cccc3Cl)nc2c1` [Example 168, 2-(2,6-Dichloro-phenylamino)-1H-benzimidazole-5-carboxylic acid (cis-4-trifluoromethyl-cyclohexyl)-amide], the inhibition at 10 µM came to 100%.

As for `Cn1c(Nc2c(Cl)cccc2Cl)nc2cc(C(=O)NC3CCCCC3)ccc21` [compound 317], the inhibition at 10 µM amounted to 98%.

Regarding `O=C(Nc1ccc(I)cc1)c1ccc2[nH]c(Nc3c(Cl)cccc3Cl)nc2c1` [Example 84, 2-(2,6-Dichloro-phenylamino)-1H-benzimidazole-5-carboxylic acid (4-iodo-phenyl)-amide], the inhibition at 10 µM is 100%.

Take `O=C(NC1CCC2(CC1)CC2)c1ccc2[nH]c(Nc3c(F)cccc3Cl)nc2c1` [Example 488, 2-(2-Chloro-6-fluorophenylamino)-N-(spiro[2.5]octan-6-yl)-1H-benzimidazole-5-carboxamide]: the inhibition at 10 µM turned out to be 98%.

With `Cn1c(Nc2cc(Cl)ccc2Cl)nc2cc(C(=O)Nc3ccc(Br)cc3)ccc21` [Example 380, N-(4-Bromophenyl)-2-(2,5-dichlorophenylamino)-1-methyl-1H-benzimidazole-5-carboxamide], the inhibition at 10 µM stood at 100%.

For `Cn1c(Nc2c(Cl)cccc2Cl)nc2cc(C(=O)Nc3cccc(Cl)n3)ccc21` [Example 347, 2-(2,6-Dichloro-phenylamino)-1-methyl-1H-benzimidazole-5-carboxylic acid (6-chloro-pyridin-2-yl)-amide], the inhibition at 10 µM stood at 100%.

Consider `Cn1c(Nc2c(Cl)cccc2Cl)nc2cc(C(=O)NC3CCCCC3)c(F)cc21` [Example 159, 2-(2,6-Dichloro-phenylamino)-6-fluoro-1-methyl-1H-benzimidazole-5-carboxylic acid cyclohexylamide], for which the inhibition at 10 µM was 98%.

On to `O=C(NC1CCCC(O)C1)c1ccc2[nH]c(Nc3c(Cl)cccc3Cl)nc2c1` (stereo not drawn) [Example 226, 2-(2,6-Dichloro-phenylamino)-1H-benzimidazole-5-carboxylic acid (3-hydroxy-cyclohexyl)-amide], for which the inhibition at 10 µM came out at 64%.

Regarding `CC1(C)CCC(NC(=O)c2ccc3[nH]c(Nc4c(Cl)cccc4Cl)nc3c2)CC1` [Example 64, 2-(2,6-Dichloro-phenylamino)-1H-benzimidazole-5-carboxylic acid (4,4-dimethyl-cyclohexyl)-amide], the inhibition at 10 µM came to 97%.

Take `O=C(Nc1c(Cl)cc(Cl)cc1Cl)c1ccc2[nH]c(Nc3c(Cl)cccc3Cl)nc2c1` [Example 313, 2-(2,6-Dichloro-phenylamino)-1H-benzimidazole-5-carboxylic acid (2,4,6-trichloro-phenyl)-amide]: the inhibition at 10 µM was determined as 99%.

In the case of `Cc1cnc(CNC(=O)c2cc3nc(Nc4c(Cl)cccc4Cl)n(C)c3cc2F)c(C)c1` [Example 470, 2-(2,6-Dichlorophenylamino)-N-((3,5-dimethylpyridin-2-yl)methyl)-6-fluoro-1-methyl-1H-benzimidazole-5-carboxamide], the inhibition at 10 µM was found to be 100%.

With `Cc1cc(C(=O)Nc2ccc(Cl)c(F)c2)cc2nc(Nc3c(Cl)cccc3Cl)[nH]c12` [Example 52, 2-(2,6-Dichloro-phenylamino)-7-methyl-1H-benzimidazole-5-carboxylic acid (4-chloro-3-fluoro-phenyl)-amide], the inhibition at 10 µM came out at 100%.

With `CCCC[C@H](C)NC(=O)c1cc2nc(Nc3c(Cl)cccc3Cl)n(C)c2cc1F` [Example 450, (S)-2-(2,6-Dichlorophenylamino)-6-fluoro-N-(hexan-2-yl)-1-methyl-1H-benzimidazole-5-carboxamide], the inhibition at 10 µM worked out at 99%.

With `COc1cc2nc(Nc3c(Cl)cccc3Cl)[nH]c2cc1C(=O)Nc1ccc(Cl)c(F)c1` [Example 197], the inhibition at 10 µM was found to be 100%.

On to `O=C(Nc1ccc(Br)cc1)c1ccc2[nH]c(Nc3ccccc3Br)nc2c1` [Example 279, 2-(2-Bromo-phenylamino)-1H-benzimidazole-5-carboxylic acid (4-bromo-phenyl)-amide], for which the inhibition at 10 µM worked out at 97%.

For the molecule `O=C(N[C@H]1CC[C@H](C(F)(F)F)CC1)c1cc2nc(Nc3c(Cl)ccc(Cl)c3F)[nH]c2cc1OCC(F)(F)F` [Example 592, 2-(3,6-Dichloro-2-fluoro-phenylamino)-N-(4-trans-trifluoromethyl-cyclohex-1-yl)-6-(2,2,2-trifluorethoxy)-1H-benzimidazole-5-carboxamide], the inhibition at 10 µM came out at 97%.

With `Cn1c(NC(=O)c2ccc3[nH]c(Nc4c(Cl)cccc4Cl)nc3c2)nc2ccccc21` [Example 81, 2-(2,6-Dichloro-phenylamino)-1H-benzimidazole-5-carboxylic acid (1-methyl-benzimidazol-2-yl)-amide], the inhibition at 10 µM is 84%.

The values above are taken from patent US8916599B2, “1H-benz imidazole-5-carboxamides as anti-inflammatory agents” (Orexo AB, priority 2008, dated 2014).
